Converted amounts (≈) assume the structure as drawn. Where two headings read alike, the source gives them in different places.
Tests used:
Saccharomyces cerevisiae [1] = assay: MIC/MFC broth microdilution (CLSI); type: cell-based; conditions: Saccharomyces cerevisiae S288c
Protocol: (§1) Antifungal susceptibility was determined by broth microdilution according to the CLSI guidelines described in M27-Ed4 ([16]). […] MFC was determined by back-plating drug-treated cultures from MIC broths onto SDA plates. The MFC was defined as the lowest concentration from which no colonies could be cultured.

Candida albicans [2] = assay: MIC/MFC broth microdilution (CLSI); type: cell-based; conditions: Candida albicans SC5314
Protocol: as §1

[3] = test system: Cryptococcus deuterogattii; assay: checkerboard drug interaction (FICI, MICc);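 as to all read-outs here: simplified diagonal checkerboard screen pairing antifungal drugs with FPPS inhibitors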; type: cell-based; conditions: C. deuterogattii; for INH FD (MIC-MICc fold decrease): fold decrease of inhibitor MIC
Protocol: (§2) Drug interactions between antifungals and FPPS inhibitors were investigated using a simplified checkerboard diagonal screening method ([45]). […] FICIs were determined according to the Loewe additivity model ([17]).

Cryptococcus neoformans [4] = assay: checkerboard drug interaction (FICI, MICc);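 as to all read-outs here: antifungal plus FPPS inhibitor pairs tested against Cryptococcus neoformans by simplified diagonal checkerboard screening, FICI computed under the Loewe additivity model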; type: cell-based; conditions: C. neoformans; for INH FD (MIC-MICc fold decrease): fold decrease of inhibitor MIC
Protocol: as §2

Saccharomyces cerevisiae [5] = assay: checkerboard drug interaction (FICI, MICc);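 as to all read-outs here: simplified diagonal checkerboard screen pairing antifungals with FPPS inhibitors, FICI calculated under the Loewe additivity model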; type: cell-based; set-up: INH MICc / INH MICc (ITR:INH) / INH MICc (KET:INH) / INH MICc (FLC:INH): unit not given beside the values; conditions: S. cerevisiae; for INH FD (MIC-MICc fold decrease): fold decrease of inhibitor MIC
Candida glabrata [6] = assay: checkerboard drug interaction (FICI, MICc);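 as to all read-outs here: simplified diagonal checkerboard screen pairing antifungals with FPPS inhibitors, FICI calculated under the Loewe additivity model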; type: cell-based; conditions: C. glabrata; for INH FD (MIC-MICc fold decrease): fold decrease of inhibitor MIC
Protocol: as §2

Candida albicans [7] = assay: checkerboard drug interaction (FICI, MICc);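 as to all read-outs here: antifungal plus FPPS inhibitor combinations on Candida albicans tested by a simplified diagonal checkerboard screen, with FICI calculated under the Loewe additivity model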; type: cell-based; conditions: C. albicans; for INH FD (MIC-MICc fold decrease): fold decrease of inhibitor MIC
Protocol: as §2

Aspergillus flavus [8] = assay: checkerboard drug interaction (FICI, MICc);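 also: simplified diagonal checkerboard screen pairing azole antifungals with FPPS inhibitors, FICI calculated under the Loewe additivity model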; type: cell-based; set-up: INH MICc (KET:INH) / INH MICc (FLC:INH): unit not given beside the values; conditions: A. flavus
Aspergillus fumigatus [9] = assay: checkerboard drug interaction (FICI, MICc);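 as to all read-outs here: simplified diagonal checkerboard screen pairing antifungals with FPPS inhibitors against Aspergillus fumigatus, with FICI calculated under the Loewe additivity model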; type: cell-based; conditions: A. fumigatus; for INH FD (MIC-MICc fold decrease): fold decrease of inhibitor MIC
Protocol: as §2

Trichophyton rubrum [10] = assay: checkerboard drug interaction (FICI, MICc);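 also: simplified diagonal checkerboard screen pairing azole antifungals with FPPS inhibitors, FICI calculated under the Loewe additivity model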; type: cell-based; conditions: T. rubrum
Protocol: as §2

HEK-293T cells = assay: MTT reduction cytotoxicity assay; type: cell-based; conditions: Homo sapiens, HEK-293T, 72 h, MTT, 72 h
eight fungal species [11] = assay: MIC/MFC summary across the eight fungal species of Table 1; type: cell-based
Protocol: The antifungal activity of these compounds was evaluated according to CLSI guidelines ([16]).

eight fungal species [12] = assay: checkerboard interaction with azoles, summary across the eight species; type: cell-based; conditions: geometric mean MIC in combination with azoles
Description: Synergy between lipophilic FPPS inhibitors and azole antifungals was investigated by determining the fractional inhibitory concentration index (FICI) (Fig. 2; Table S1 Fig. S1) ([17]). […]. Derivatives PLA9 and 11, and PDA9, 11, and 12 antagonized azoles in C. albicans, C. neoformans, and C. deuterogattii, yet were largely synergistic in C. glabrata and S. cerevisiae. […].

[13] = test system: Cryptococcus deuterogattii; assay: MIC/MFC broth microdilution (CLSI); conditions: Cryptococcus deuterogattii;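 also: broth microdilution per CLSI M27-Ed4. MFC is the lowest concentration yielding no colonies when MIC broths are subcultured onto SDA plates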
Protocol: as §1

Cryptococcus neoformans [14] = assay: MIC/MFC broth microdilution (CLSI); conditions: Cryptococcus neoformans;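 also: susceptibility testing followed the CLSI M27-Ed4 broth microdilution document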
Protocol: as §1

Candida glabrata [15] = assay: MIC/MFC broth microdilution (CLSI); conditions: Nakaseomyces glabratus, CBS138;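 also: broth microdilution following CLSI M27-Ed4, MFC taken as the lowest drug level yielding no growth once MIC wells were subcultured on SDA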
Protocol: as §1

Aspergillus flavus [16] = assay: MIC/MFC broth microdilution (CLSI); conditions: ATCC204304
Protocol: as §1

Aspergillus fumigatus [17] = assay: MIC/MFC broth microdilution (CLSI); conditions: ATCC204305
Protocol: as §1

Trichophyton rubrum [18] = assay: MIC/MFC broth microdilution (CLSI); conditions: Trichophyton rubrum
Protocol: as §1

[19] = FLC:INH combination, MIC of the inhibitor in combination with FLC
[20] = FLC:INH combination, fold decrease of FLC MIC
[21] = ITR:INH combination, MIC of the inhibitor in combination with ITR
[22] = ITR:INH combination, fold decrease of ITR MIC
[23] = KET:INH combination, MIC of the inhibitor in combination with KET
[24] = KET:INH combination, fold decrease of KET MIC
[25] = FLC:INH combination, MIC of FLC in combination with the inhibitor
[26] = ITR:INH combination, MIC of ITR in combination with the inhibitor
[27] = KET:INH combination, MIC of KET in combination with the inhibitor
[28] = Fractional Inhibitory Concentration Index, fluconazole + inhibitor
[29] = Fractional Inhibitory Concentration Index, itraconazole + inhibitor
[30] = Fractional Inhibitory Concentration Index, ketoconazole + inhibitor
[31] = MIC of the inhibitor in combination with fluconazole
[32] = MIC of the inhibitor in combination with itraconazole
[33] = MIC of the inhibitor in combination with ketoconazole
[34] = MIC-MICc fold decrease of fluconazole, negative = increase
[35] = MIC-MICc fold decrease of itraconazole, negative = increase
[36] = MIC-MICc fold decrease of ketoconazole, negative = increase
[37] = MIC-MICc fold decrease of the inhibitor, with fluconazole
[38] = MIC-MICc fold decrease of the inhibitor, with itraconazole
[39] = MIC-MICc fold decrease of the inhibitor, with ketoconazole

CCCCCCCCCN1CCC[C@H]1C(=O)N[C@@H](CC(=O)OC)C(=O)OC [dmPLA9]
MFC (Saccharomyces cerevisiae [1]): 32 µg/mL (≈ 83.2 µM)
MIC (Saccharomyces cerevisiae [1]): 32 µg/mL (≈ 83.2 µM)
MFC (Candida albicans [2]): > 128 µg/mL
MIC (Candida albicans [2]): > 128 µg/mL
FICI ([3]; FLC:INH combination): 3
INH MICc [3, 19]: 128
FLC FD (MIC-MICc fold decrease) [3, 20]: -2
INH FD (MIC-MICc fold decrease) ([3]; FLC:INH combination): 1
FICI ([3]; ITR:INH combination): ≥4
INH MICc [3, 21]: 256
ITR FD (MIC-MICc fold decrease) [3, 22]: -4
INH FD (MIC-MICc fold decrease) ([3]; ITR:INH combination): -2
FICI ([3]; KET:INH combination): 1.5
INH MICc [3, 23]: 128
KET FD (MIC-MICc fold decrease) [3, 24]: 2
INH FD (MIC-MICc fold decrease) ([3]; KET:INH combination): 1
FICI (Cryptococcus neoformans [4]; FLC:INH combination): ≥4
INH MICc (Cryptococcus neoformans [4]; [19]): 128
FLC FD (MIC-MICc fold decrease) (Cryptococcus neoformans [4]; [20]): -4
INH FD (MIC-MICc fold decrease) (Cryptococcus neoformans [4]; FLC:INH combination): -2
FICI (Cryptococcus neoformans [4]; ITR:INH combination): ≥4
INH MICc (Cryptococcus neoformans [4]; [21]): 128
ITR FD (MIC-MICc fold decrease) (Cryptococcus neoformans [4]; [22]): -4
INH FD (MIC-MICc fold decrease) (Cryptococcus neoformans [4]; ITR:INH combination): -2
FICI (Cryptococcus neoformans [4]; KET:INH combination): 3
INH MICc (Cryptococcus neoformans [4]; [23]): 64
KET FD (MIC-MICc fold decrease) (Cryptococcus neoformans [4]; [24]): -2
INH FD (MIC-MICc fold decrease) (Cryptococcus neoformans [4]; KET:INH combination): 1
FICI (Saccharomyces cerevisiae [5]; FLC:INH combination): 2.5
FLC MICc (Saccharomyces cerevisiae [5]; [25]): 8
INH MICc (Saccharomyces cerevisiae [5]; [19]): 16
FLC FD (MIC-MICc fold decrease) (Saccharomyces cerevisiae [5]; [20]): -2
INH FD (MIC-MICc fold decrease) (Saccharomyces cerevisiae [5]; FLC:INH combination): 2
FICI (Saccharomyces cerevisiae [5]; ITR:INH combination): 3
ITR MICc (Saccharomyces cerevisiae [5]; [26]): 0.5
INH MICc (Saccharomyces cerevisiae [5]; [21]): 32
ITR FD (MIC-MICc fold decrease) (Saccharomyces cerevisiae [5]; [22]): -2
INH FD (MIC-MICc fold decrease) (Saccharomyces cerevisiae [5]; ITR:INH combination): 1
FICI (Saccharomyces cerevisiae [5]; KET:INH combination): 1.06
KET MICc (Saccharomyces cerevisiae [5]; [27]): 2
INH MICc (Saccharomyces cerevisiae [5]; [23]): 2
KET FD (MIC-MICc fold decrease) (Saccharomyces cerevisiae [5]; [24]): 1
INH FD (MIC-MICc fold decrease) (Saccharomyces cerevisiae [5]; KET:INH combination): 16
FICI (Candida glabrata [6]; FLC:INH combination): ≥4
INH MICc (Candida glabrata [6]; [19]): 64
FLC FD (MIC-MICc fold decrease) (Candida glabrata [6]; [20]): -4
INH FD (MIC-MICc fold decrease) (Candida glabrata [6]; FLC:INH combination): 4
FICI (Candida glabrata [6]; ITR:INH combination): 1.5
INH MICc (Candida glabrata [6]; [21]): 8
ITR FD (MIC-MICc fold decrease) (Candida glabrata [6]; [22]): 1
INH FD (MIC-MICc fold decrease) (Candida glabrata [6]; ITR:INH combination): 32
FICI (Candida glabrata [6]; KET:INH combination): 1.5
INH MICc (Candida glabrata [6]; [23]): 8
KET FD (MIC-MICc fold decrease) (Candida glabrata [6]; [24]): 1
INH FD (MIC-MICc fold decrease) (Candida glabrata [6]; KET:INH combination): 32
FICI (Candida albicans [7]; FLC:INH combination): 2.13
INH MICc (Candida albicans [7]; [19]): 16
FLC FD (MIC-MICc fold decrease) (Candida albicans [7]; [20]): -2
INH FD (MIC-MICc fold decrease) (Candida albicans [7]; FLC:INH combination): 8
FICI (Candida albicans [7]; ITR:INH combination): 2.13
INH MICc (Candida albicans [7]; [21]): 16
ITR FD (MIC-MICc fold decrease) (Candida albicans [7]; [22]): -2
INH FD (MIC-MICc fold decrease) (Candida albicans [7]; ITR:INH combination): 8
FICI (Candida albicans [7]; KET:INH combination): 2.13
INH MICc (Candida albicans [7]; [23]): 16
KET FD (MIC-MICc fold decrease) (Candida albicans [7]; [24]): -2
INH FD (MIC-MICc fold decrease) (Candida albicans [7]; KET:INH combination): 8
FICI (FLC:INH) (Aspergillus flavus [8]; [28]): 1.5
FICI (ITR:INH) (Aspergillus flavus [8]; [29]): 2
FICI (KET:INH) (Aspergillus flavus [8]; [30]): 1
INH MICc (FLC:INH) (Aspergillus flavus [8]; [31]): 128
INH MICc (ITR:INH) (Aspergillus flavus [8]; [32]): 256
INH MICc (KET:INH) (Aspergillus flavus [8]; [33]): 128
FLC FD (FLC:INH) (Aspergillus flavus [8]; [34]): 1
ITR FD (ITR:INH) (Aspergillus flavus [8]; [35]): 1
KET FD (KET:INH) (Aspergillus flavus [8]; [36]): 2
INH FD (FLC:INH) (Aspergillus flavus [8]; [37]): 2
INH FD (ITR:INH) (Aspergillus flavus [8]; [38]): 1
INH FD (KET:INH) (Aspergillus flavus [8]; [39]): 2
FICI (Aspergillus fumigatus [9]; FLC:INH combination): 3
FLC MICc (Aspergillus fumigatus [9]; [25]): 128
INH MICc (Aspergillus fumigatus [9]; [19]): 256
FLC FD (MIC-MICc fold decrease) (Aspergillus fumigatus [9]; [20]): 1
INH FD (MIC-MICc fold decrease) (Aspergillus fumigatus [9]; FLC:INH combination): -2
FICI (Aspergillus fumigatus [9]; ITR:INH combination): 1.03
ITR MICc (Aspergillus fumigatus [9]; [26]): 0.125
INH MICc (Aspergillus fumigatus [9]; [21]): 4
ITR FD (MIC-MICc fold decrease) (Aspergillus fumigatus [9]; [22]): 1
INH FD (MIC-MICc fold decrease) (Aspergillus fumigatus [9]; ITR:INH combination): 32
FICI (Aspergillus fumigatus [9]; KET:INH combination): 2
KET MICc (Aspergillus fumigatus [9]; [27]): 4
INH MICc (Aspergillus fumigatus [9]; [23]): 128
KET FD (MIC-MICc fold decrease) (Aspergillus fumigatus [9]; [24]): 1
INH FD (MIC-MICc fold decrease) (Aspergillus fumigatus [9]; KET:INH combination): 1
FICI (FLC:INH) (Trichophyton rubrum [10]; [28]): ≥4
FICI (ITR:INH) (Trichophyton rubrum [10]; [29]): 1.5
FICI (KET:INH) (Trichophyton rubrum [10]; [30]): 2
INH MICc (FLC:INH) (Trichophyton rubrum [10]; [31]): 256
INH MICc (ITR:INH) (Trichophyton rubrum [10]; [32]): 128
INH MICc (KET:INH) (Trichophyton rubrum [10]; [33]): 128
FLC FD (FLC:INH) (Trichophyton rubrum [10]; [34]): -2
ITR FD (ITR:INH) (Trichophyton rubrum [10]; [35]): 2
KET FD (KET:INH) (Trichophyton rubrum [10]; [36]): 1
INH FD (FLC:INH) (Trichophyton rubrum [10]; [37]): -2
INH FD (ITR:INH) (Trichophyton rubrum [10]; [38]): 1
INH FD (KET:INH) (Trichophyton rubrum [10]; [39]): 1
IC50 (HEK-293T cells; HEK-293T cells, read-out: IC50): 41.4 µg/mL (≈ 108 µM)
IC50 (HEK-293T cells; read-out: HEK IC50): 41.4 µg/mL (≈ 108 µM)
MFC (eight fungal species [11]; across eight species, read-out: Geometric mean MFC): 197 µg/mL (≈ 513 µM)
MIC (eight fungal species [11]; geometric mean across eight species, read-out: GM fungal MIC): 128 µg/mL (≈ 333 µM)
MIC (eight fungal species [11]; read-out: Geometric mean MIC): 128 µg/mL (≈ 333 µM)
GM fungal MICc (eight fungal species [12]): 52.3
MFC [13]: > 128 µg/mL
MIC [13]: 128 µg/mL (≈ 333 µM)
MFC (Cryptococcus neoformans [14]): > 128 µg/mL
MIC (Cryptococcus neoformans [14]): 128 µg/mL (≈ 333 µM)
MFC (Candida glabrata [15]): > 128 µg/mL
MIC (Candida glabrata [15]): 128 µg/mL (≈ 333 µM)
MFC (Aspergillus flavus [16]): > 128 µg/mL
MIC (Aspergillus flavus [16]): > 128 µg/mL
MFC (Aspergillus fumigatus [17]): > 128 µg/mL
MIC (Aspergillus fumigatus [17]): 128 µg/mL (≈ 333 µM)
MFC (Trichophyton rubrum [18]): > 128 µg/mL
MIC (Trichophyton rubrum [18]): 128 µg/mL (≈ 333 µM)

From paper PMC12892976, “Alkylation-based optimization of antifungal FPPS inhibitors yields a potent, broad-spectrum lipophilic zoledronate derivative” (mBio, 2025)
